In data set [1] the test system is DU-145. As to the kind of experiment: MTT cell viability assay, DU-145. The data set is classed as cell-based, human. As to conditions: 48 h; for percentage of cell growth, DU-145: 10 µM, MTT screening (Figure S1); for IC50: Homo sapiens, DU-145, MTT, mean ± SD of three experiments, read-out: IC50 DU-145 (Prostate). As for the experimental part:
(§1) The cell lines were purchased from the American Type Culture Collection (ATCC). The four tumor cell lines used were as follows: MDA-MB-231 (triple-negative breast cancer), HTB-54 (lung cancer), DU-145 (prostate cancer), and HCT-116 (colon cancer), and the non-tumoral cell line 185-B5 (mammary tissue) were grown in Roswell Park Memorial Institute (RPMI) 1640 medium culture (Thermo Scientific, USA), supplemented with 10% fetal bovine serum (FBS) (Thermo Scientific, USA) and 1% of antibiotics (10,000 units/mL penicillin and 10 mg/mL streptomycin (Thermo Scientific, USA)). Cells were preserved in tissue culture flasks at 37 °C and 5% CO2. The culture medium was replaced every two to three days.
(§2) Cell viability was determined using the MTT colorimetric assay. A total of 10,000 cells were seeded in each well in a 96-well plate for 24 h. Then, cells were incubated with the corresponding concentration of each tested compound and with DMSO (1%) as control for 48 h. Each compound was dissolved in DMSO at a stock concentration of 0.01 M. Firstly, each compound was tested at 2 concentrations (10 µM and 50 µM) in four human tumoral cell lines MDA-MB-231, HTB-54, DU-145, and HCT-116. Serial dilutions from stock concentration with culture medium were prepared. […] The cell viability was determined by the addition of 20 µL of MTT and its incubation for 2.5 h. Later, the culture medium was removed, and 50 µL of DMSO was added to dissolve formazan crystals. The absorbance was measured at 550 nm. Inhibitory concentration 50 (IC50) and selectivity index (SI) were calculated. Three different experiments were performed independently.
(§3) Cell viability results are expressed as the mean ± standard deviation (SD), and experiments were independently performed thrice in triplicates. IC50 values were determined using a non-linear curve regression analysis calculated by OriginPro 9.0 software.
On the technique in general: Tetrazolium assays rely on reduction of a dye to a coloured formazan, in cell work by metabolically active cells.

The subject of data set [2] is HTB-54. Description: MTT cell viability assay, HTB-54. Format: cell-based, human. As to conditions: 48 h; for percentage of cell growth, HTB-54: 10 µM, MTT screening (Figure S1); for IC50: Homo sapiens, HTB-54, MTT, mean ± SD of three experiments, read-out: IC50 HTB-54 (Lung). As for the experimental part: as §1, §2, §3
In data set [3] the test system is MDA-MB-231. Description: MTT cell viability assay, MDA-MB-231. The data set is classed as cell-based, human. As to conditions: for percentage of cell growth, MDA-MB-231: 10 µM, MTT screening (Figure S1); for percentage of cell growth, MDA-MB-231 / IC50: 48 h; for IC50: Homo sapiens, MDA-MB-231, MTT, mean ± SD of three experiments, read-out: IC50 MDA-MB-231 (Breast); for Selectivity index (SI): IC50 184-B5/IC50 MDA-MB-231. The procedure: as §1, §2, §3

In data set [4] the test system is 184-B5. Description: MTT cell viability assay, non-malignant 184-B5. Format: cell-based. As to conditions: Homo sapiens, 48 h, mean ± SD of three experiments, read-out: IC50 184-B5 (Breast, non-tumoral). As for the experimental part:
as §1, §2, §3

The test system of data set [5] is HCT-116. As to the kind of experiment: MTT cell viability assay, HCT-116. As to conditions: 10 µM, 48 h, MTT screening (Figure S1). Format: cell-based, human. As for the experimental part:
as §1, §2, §3

The subject of data set [6] is MDA-MB-231, HTB-54, and DU-145. As to the kind of experiment: MTT dose-response in the three tumoral cell lines. As to conditions: 48 h, read-out: IC50 toward the tumoral cell lines. Format: cell-based, human. As for the experimental part: as §2, §3
Data set [7] relates to MDA-MB-231, HTB-54, DU-145, and HCT-116. As to the kind of experiment: MTT initial screening in four tumor cell lines. Format: cell-based. The following applies: Homo sapiens, in at least three cell lines, 48 h, read-out: cell growth inhibition. As for the experimental part: as §2
Data set [8] deals with panel of 60 cancer cell lines. As to the kind of experiment: NCI60 One-Dose screening. The data set is classed as cell-based. The following applies: 1·10^−5 M, 48 h, mean of 60 cancer cell lines. The procedure:
(§4) The ten compounds with the highest cell growth inhibition activity were submitted to the Developmental Therapeutics Program (DTP) of the National Cancer Institute (NCI). The assay consists of the evaluation of the cytotoxicity by a One-Dose screening at 10^−5 M against a panel of 60 cancer cell lines of different tumors (leukemia, lung, central nervous system (CNS), melanoma, ovarian, renal, prostate, and breast cancer cell lines). […] A range of 5000–40,000 cells/well were seeded and cultured in RPMI 1640 containing 5% of FBS and 2 mM L-glutamine and were inoculated into 96-well microtiter plates in 100 µL. The microtiter plates are incubated at 37 °C and 5% humidified CO2 for 24 h prior to the addition of experimental drugs. After that, an experimental drug was added, and the microtiter was incubated for 48 h.

Data set [9] deals with panel of 60 cancer cell lines. As to the kind of experiment: NCI60 Five-Dose assay. Format: cell-based. The following applies: Five-Dose assay 0.01–100 µM, 48 h, 60 cell line panel. The procedure:
as §4

Data set [10] has as its system DU-145 cells. Description: Muse Annexin V/7-AAD apoptosis assay. The data set is classed as cell-based, human. The following applies: DU-145, 2.5 μM, 48 h. As for the experimental part:
(§5) The apoptosis assays were conducted using the Muse Caspase-3/7 assay kit and the Annexin V/7-AAD kit (EMD Millipore, Darmstadt, Germany) following the manufacturer’s instructions. Initially, DU-145 cells were seeded in 6-well plates at a density of 1 × 10^5 cells per well. After 24 h of incubation, the cells received treatment with 2.5 µM and 5 µM of compound 4. Subsequently, the cells were incubated for 48 h. Upon completion of the treatment period, the cells were harvested using enzyme-free Cell Dissociation Buffer. The samples were then subjected to the appropriate dyes according to the manufacturer’s instructions and analyzed using the Muse Cell Analyzer (Merck Millipore, Darmstadt, Germany).
Apoptosis was assessed using the Muse Annexin V & Dead Cell assay kit following the manufacturer’s guidelines.

Data set [11] concerns DU-145 cells. Description: Muse Caspase-3/7 assay. The data set is classed as cell-based, human. The following applies: DU-145, 2.5 and 5 µM, 48 h. As for the experimental part: as §5
Data set [12] concerns apoptotic proteins in DU-145 cells. As to the kind of experiment: Western blot of apoptotic proteins. As to conditions: DU-145, 5 µM, 24 h. The data set is classed as cell-based, human. As for the experimental part:
Western blot analysis was conducted to evaluate changes in protein expression levels before and after treatment. In brief, DU-145 cells were treated with 5 µM of compound 4, and upon completing the designated treatment duration, cell lysis was achieved using RIPA buffer (Thermo Scientific, USA), supplemented with a protease inhibitor cocktail (Thermo Scientific, USA). Subsequently, the resulting lysates were chilled on ice for 30 min and then centrifuged at 10,000 rpm for 15 min to remove cellular debris. Total protein concentration was determined using the BCA assay (Thermo Scientific, USA). Equivalent quantities of cell lysates were separated using NuPAGE 4–12% gels (Life Technologies, Carlsbad, CA, USA), followed by electro-transfer onto a PVDF membrane. Various antibodies were employed to investigate protein expression levels, with detection accomplished using the Enhanced Chemiluminescent reagent (Life Technologies, USA). All antibodies utilized in this study were procured from Cell Signaling Technologies (Danvers, MA, USA).

The subject of data set [13] is MDA-MB-231 cells. The following applies: cited from earlier work.
Data set [14] concerns DU-145. Also on record: method as in PMID 11306488. As to conditions: cited from earlier work.

Where two headings read alike, the source gives them in different places.

Consider `CC(=O)Oc1ccccc1C(=O)[Se]C(=NC(C)C)NC(C)C` [Compound 4], for which, in data set [1], the “percentage of cell growth, DU-145” value is listed as -82.47% and the IC50 (usually the midpoint of a concentration-inhibition curve) stood at 5.06 ± 0.02 µM. In addition, in [2], the “percentage of cell growth, HTB-54” value is listed as -34.81% and the IC50 was determined as 7.2 ± 1.81 µM. Further, in [3], the “percentage of cell growth, MDA-MB-231” value is recorded as -41.78%; the IC50 stood at 5.48 ± 0.42 µM; the “Selectivity index (SI)” value came out at 1.75. The IC50 in [4] was 9.6 ± 0.97 µM. Also, the “percentage of cell growth, HCT-116” value in [5] is reported as 36.77%. For the same compound, the IC50 in data set [6] is under 7.5 µM. Besides, the IC50 in data set [6] (Homo sapiens) was under 10 µM. Besides, the inhibition (as a rule, the percentage by which the read-out fell short of the control) at 10 µM in data set [7] is over 50%. For the same compound, the “mean value of cell growth, One-Dose assay” value (shortened to “mean value of cell growth”) in data set [8] was −67.93%. Further, the GI50 (in general, the concentration at which growth is held to half of that of the control) in data set [9] was under 2 µM. Also, the “cells exhibiting signs of apoptosis” value in data set [10] is “over 25%”. Besides, in data set [11], the “caspase 3/7 activity” value was “dose-dependent increase”. Besides, in data set [12], the Bax expression result is listed as “upregulation”; the Bcl-2 expression entry is “Downregulation”; the “caspase-3 cleavage and activation” value was “increased the cleavage and activation”; the “expression of pro-caspase-9” value is given as “reduction”.

Turning to `CC(C)NC(=[Se])NC(=O)c1ccccc1` [Compound 15], the melting point (usually the temperature of the solid-liquid transition) fell in the range of 125 to 127 °C. In addition, in data set [1], the “percentage of cell growth, DU-145” value is reported as -80.57% and the IC50 worked out at 5.19 ± 1.55 µM. For the same compound, in data set [2], the “percentage of cell growth, HTB-54” value is recorded as -57.90% and the IC50 came to 26.4 ± 16.9 µM. Besides, in data set [3], the “percentage of cell growth, MDA-MB-231” value is -59.41%; the IC50 came to 24.5 ± 7.55 µM; the “Selectivity index (SI)” value is reported as 0.34. Further, in data set [4], the IC50 was 8.51 ± 4.81 µM. Further, the “percentage of cell growth, HCT-116” value in data set [5] came to 123.90%. Also, the inhibition at 10 µM in [7] was over 50%. The “mean value of cell growth” value in data set [8] is recorded as −31.58%. Further, the GI50 in [9] was under 2 µM.

In the case of `CC(=O)Oc1ccccc1C(=O)[Se]C(=NC1CCCCC1)NC1CCCCC1` [Compound 1], the melting point was 96 to 97 °C. Moreover, in [1], the “percentage of cell growth, DU-145” value is given as -96.27% and the IC50 came out at 5.17 ± 0.32 µM. In data set [2], the “percentage of cell growth, HTB-54” value is -52.60% and the IC50 is 8.31 ± 1.01 µM. Besides, in data set [3], the “percentage of cell growth, MDA-MB-231” value turned out to be 39.10%; the IC50 was found to be 8.56 ± 0.1 µM; the “Selectivity index (SI)” value was found to be 1.84. In addition, in data set [4], the IC50 was 15.8 ± 1.33 µM. In addition, the “percentage of cell growth, HCT-116” value in data set [5] is 94.15%. The inhibition at 10 µM in data set [7] was over 50%. The “mean value of cell growth” value in data set [8] is −68.50%. Moreover, in [9], the GI50 was under 2 µM.

Regarding `[Se]` [elemental Se], in [13] (MDA-MB-231 cells incubated alone with Se), the “effect on cell growth” value is “no effect on cell growth”. For the same compound, the “type of cell death” value in data set [14] is given as “apoptotic cell death”.

For the compound `O=[Se]=O` [SeO2], the cell viability entry in [13] (MDA-MB-231) is reported as “at least 50%”.

The values are drawn from PMC10891803, “Seleno-Warfare against Cancer: Decoding Antitumor Activity of Novel Acylselenoureas and Se-Acylisoselenoureas” (Pharmaceutics, 2024).
